Test results published in patent US11896612B2, “Resurrection of antibiotics that MRSA resists by silver-doped bioactive glass-ceramic particles” (Board of Trustees of Michigan State University, priority 2019, dated 2024).
“Also recorded” adds a separate entry of the source.

Columns and labels:
[1] = tested on: methicillin-resistant S. aureus USA300 JE2; test: Antibacterial test: CFU enumeration of MRSA suspended in PBS (growth-arrested); assay type: cell-based, Staphylococcus aureus; details: 24 hours; for bacterial inhibition by antibiotic alone: PBS, static, oxacillin 0.1-50 μg/ml, vancomycin up to 10 mg/ml, fosfomycin 0.05-50 μg/ml, gentamicin 0.01 μg/ml
Procedure: All experiments are conducted using the laboratory derived methicillin-resistant S. aureus USA300 JE2. Cells are streaked for isolation on tryptic soy agar (TSA) and cultured at 37° C. overnight. An isolated colony is then grown in broth (TSB), shaking at 225 rpm at 37° C. overnight. Next, 1 mL solution of MRSA in PBS, normalized to an optical density (OD600 nm) equal to 1 (equivalent to 10^8 CFU/mL) is prepared. The bacterial suspension is mixed in a 1:1 volume ratio, with each of the solutions containing twofold the final concentration of Ag-BG, antibiotic, or the indicated Ag-BG/antibiotic combination. An untreated control is also prepared by mixing the bacterial suspension in a 1:1 volume ratio with PBS.
Bacterial suspensions are placed in a 37° C. incubator for the indicated time. At each time point, an aliquot of the bacterial suspension is removed to enumerate colony forming units (CFU) of the bacteria via serial dilution and plating on TSA. All plates are incubated at 37° C. Quantification of CFU are performed in biological and technical triplicate. Measurements are repeated three times. Standard deviation is indicated as error bars. Statistical analysis is performed using the paired Student's t-test, two tailed, n=9 and p<0.05.
The bactericidal properties of Ag-BG alone, vancomycin alone (vanc) and the combination of Ag-BG with vancomycin (Ag-BG/vanc) were studied against laboratory-derived methicillin-resistant S. aureus (MRSA) USA300 JE241. The bacteria cells were prepared by isolation of a single colony, followed by its inoculation in tryptic soy broth overnight at 37° C. A bacterial suspension was prepared by adjusting the concentration of the overnight culture to 108 colony forming units (CFU)/mL in Phosphate Buffered Saline (PBS). Then, the bacterial suspension was mixed 1:1 with the corresponding treatment (Ag-BG, Ag-BG/vanc or vanc) to a final volume of 1 mL. A negative control was prepared by suspending bacteria 1:1 in PBS. After 24 h of incubation at 37° C., […] of suspension were drawn from the mixture for CFU enumeration in tryptic soy agar plates. The effect of the treatments was evaluated based on the decrease of CFU compared to the negative control. Quantification of CFU was performed in biological and technical triplicates.
Vancomycin (molecular formula: C66H75C12N9O24·HCl, Vancomycin hydrochloride) is a cell-wall targeting antibiotic with no effect against MRSA under growth-arrested conditions and was selected for this example. Here, the concentration dependency of this synergism was evaluated by exposing MRSA to different combinations of Ag-BG/vanc. Two experimental set-ups were considered. Initially, 0.5 mg/mL of vancomycin were delivered together with 1.25, 2.5, 3.75 or 6.5 mg/mL of Ag-BG and then, 2.5 mg/mL of Ag-BG were combined with 0.1, 0.3, 0.5 and 1 mg/mL of vancomycin. The Ag-BG powder was sterilized using UV radiation before exposure to bacteria. The antibiotic treatment was prepared by dilution of vancomycin powder at different concentrations in PBS, and the Ag-BG/vanc samples were prepared by mixing Ag-BG powder with the corresponding vancomycin solution.

[2] = tested on: MRSA; test: TEM and SEM imaging of MRSA after exposure; assay type: cell-based, Staphylococcus aureus; details: 24 hours exposure in PBS
Procedure: After 24 hours of incubation, solutions are prepared for studies with TEM to observe the morphology and ultrastructural properties of bacteria in each of the tested groups. The cultures are centrifuged and fixed using Karnovsky fixative, consisting of 2.5% glutaraldehyde, 2.5% paraformaldehyde and 0.1 M cacodylate buffer dissolved in deionized water. In the cases of the tested groups with Ag-BG particles, the particles are removed by allowing them to settle to the bottom of the Eppendorf microcentrifuge tubes before centrifugation and fixation. Bacteria pellets are suspended and incubated in fixative for 2 hours at room temperature. Next, the suspensions are centrifuged to remove the fixative. To capture bacteria in a solid matrix, a drop of a 2% agarose deionized water solution is added to the cell pellet. After the agarose solidifies, the matrix is washed three times at room temperature for 15 minutes with 0.1 M cacodylate buffer. A solution of 2% osmium tetroxide is used to stain the bacterial cells for 1 hour at the post-fixation stage. Subsequently, the cubes are washed with deionized water. Dehydration is done by a series of different concentrations of acetone: 25%, 50%, 75%, and 100%. Next, Spurr resin is infiltrated in a series of dilutions in acetone (acetone: resin): 3:1, 1:1, and 100% resin for two days. The cells are embedded in 100% Spurr resin at 60° C. for 24 hours and then, thin sections of less than 100 nm thickness are obtained by ultramicrotome (RMC MYX ultramicrotome) with glass knives and are mounted in bare copper grids. Positive staining is done with 2% uranyl acetate for 7 minutes and lead citrate for 3 minutes. Finally, samples are observed at 100 kV in a JEOL 100CX microscope.
Bacterial morphology upon exposure to Ag-BG particles is studied using SEM. Cells are prepared after 12 hours of exposure. In this case, the Ag-BG particles remain in the solution with the cells and are fixed using 2.5% glutaraldehyde, 2.5% paraformaldehyde, and 0.1 M cacodylate buffer dissolved in deionized water. […]

[3] = tested on: eukaryotic cells; details: cited from earlier work
[4] = tested on: bacteria; details: cited from earlier work
[5] = tested on: MRSA; test: Vancomycin susceptibility of MRSA cultured in tryptic soy broth (TSB); assay type: cell-based, Staphylococcus aureus
Procedure: Oxacillin and fosfomycin are used at 0.1 and 0.05 μg/ml, respectively—a concentration that is considerably lower than their MIC. Vancomycin (molecular formula: C66H75C12N9O24·HCl, Vancomycin hydrochloride) is selected due to a mechanism of action that is dependent on cell growth. MRSA is susceptible to 0.47 μg/ml of vancomycin when cultured in tryptic soy broth (TSB). However, exposure to vancomycin in growth arrested conditions, such as suspension in phosphate buffered saline (PBS), enhances tolerance to the antibiotic. Cells are exposed to 0.5 mg/ml vancomycin in PBS. […] All antibiotics are purchased from Sigma Aldrich in powder USP Reference Standard and are used without further purification.

[6] = tested on: human mesenchymal stem cells (hBMSC); test: Proliferation of human mesenchymal stem cells, CCK-8; assay type: cell-based; details: 0.2 mg/mL Ag2O in transwell, 4 days exposure
Procedure: Primary bone-marrow derived human mesenchymal stem cells (hBMSC) isolated from healthy donor were obtained from the Institute of Regenerative Medicine, Texas A&M University. Frozen vials of cells were thawed and cultured a in α-MEM supplemented with 16% fetal bovine serum, 1% Antibiotic-Antimycotic and 1% L-glutamine (hereafter, growth medium) in a humidified 37° C./5% CO2 incubator. Cells were expanded until 90% confluence to a final passage. Cells were enzymatically lifted, centrifuged for 5 min and re-suspended fresh media. Cells were seeded at a density of 15×10^3 cells/mL on each well of 24-well plate by pipetting 0.5 mL/well. After 24 h, Ag-BGN (5, 10 and 20 mg/mL) were transferred to porous transwells and inside the wells to treat cell for 2, 4, 6, 8 and 10 days. The results were compared to a positive control consisting on cell immersed only in media and a negative control consisting on cells treated with Ag2O exposed using a porous transwell. […]
After each time point, cell viability and proliferation were assessed introducing a CCK-8 kit solution in the wells after removing the transwells. After 2 h, […] were drawn and placed in a 96 well plate and its optical density was measured at 470 nm wavelength. […]

Molecule | bacterial inhibition by antibiotic alone [1] | bacterial ultrastructure by TEM [2] | also measured
Cc1onc(-c2ccccc2)c1C(=O)N[C@@H]1C(=O)N2[C@@H]1SC(C)(C)[C@@H]2C(=O)O [oxacillin, Oxacillin] | no demonstrable bacterial inhibition | intact cells | 
C[C@@H]1O[C@@H]1P(=O)(O)O [fosfomycin, Fosfomycin] | resistant | intact cells | 
silver ions |  |  | lowest concentration that induces cytotoxicity [3]: 1.6 ppm; minimum bactericidal concentration [4]: 0.1 ppm
CN[C@H](CC(C)C)C(=O)N[C@H]1C(=O)N[C@@H](CC(N)=O)C(=O)N[C@H]2C(=O)N[C@H]3C(=O)N[C@H](C(=O)N[C@H](C(=O)O)c4cc(O)cc(O)c4-c4cc3ccc4O)[C@H](O)c3ccc(c(Cl)c3)Oc3cc2cc(c3O[C@@H]2O[C@H](CO)[C@@H](O)[C@H](O)[C@H]2O[C@H]2C[C@](C)(N)[C@H](O)[C@H](C)O2)Oc2ccc(cc2Cl)[C@H]1O [vancomycin, Vancomycin] | not lethal; also recorded: no reduction of CFU/mL | intact cells | concentration to which MRSA is susceptible [5]: 0.47 µg/mL
[Ag+].[Ag+].[O-2] [Ag2O] |  |  | cell viability [6]: not viable
Gentamicin | does not inhibit significantly |  | concentration that significantly inhibits MRSA ([1]; static conditions): higher than 0.1 μg/ml
